In US11867690B2, “Identification of functional cell states” ([…] AG, priority 2014, dated 2024):
Entries after “also recorded” stand apart in the source; their conditions may differ.

Assays:
[1] = tested on: HL-60 cells; assay: Cell physiology assay plate 1a: flow cytometry with MBBR, CALCEIN AM, MITOSOX RED and SYTOXRED; format: cell-based, human
Description: (§1) Cells were deposited into 384 well plates (1×10^6 cells in 40 μl tissue culture media), and serial dilutions of test compounds (or vehicle in the case of controls) were deposited in individual wells using standard robotic techniques. Compound deposition and dilution was performed by BIOMEK FX (5 or 10-step dilutions from 100 to 0.005 μM). Dilutions were prepared from stock solutions of compounds dissolved initially in 100% DMSO. Final volume deposited into each well is 2 μl of each compound dilution (compounds are in a final concentration of 1% DMSO). After incubation in a tissue culture incubator (5% CO2 at 37° C.) for varying periods of time (typically 4 hours), plates were centrifuged at room temperature, followed by removal of 20 μl supernatant fluid. After vibration of the plate to re-suspend cells, a dye mix (Plate 1a Monobromobimane, CALCEIN AM, MITOSOX™ and SYTOSOX™ RED; plate 1b VYBRANVIOLET™ Live Cell Cycle dye, JC-9, and SYTOSOX™ RED) was added in a total volume of 20 μl, followed by an additional mixing step.
Each well of the 384-well plate was sampled with a 6 second sip time, plus 1 second delay between wells, resulting in a total read time for each plate of approximately 45 minutes. Data was acquired using a CYAN™ flow cytometer, with the […]™ software used to compile files for each well on an individual plate using an FCS format. Data for each plate was subsequently analyzed for several quality assurance parameters (total number of events per well, numbers of events associated with morphologically normal events, number of dead cells), as described below.
Flow cytometric analyses of intrinsic cell properties (forward light scatter and light scattered orthogonal to the laser beam) and fluorescence signals derived from the dyes listed in Table 1 was carried out for plates 1a and 1b.
Chem. Soc. […] Technol. […] MITOSOX™ RED is a compound that can diffuse into viable cells and reacts with superoxide anion species, particularly products of mitochondrial respiration; conditions such as cell stress can cause mitochondria to respond (sometimes rapidly) by increasing respiration and/or release superoxide anions; and • (3) SYTOXRED™ to measure cell viability (loss of nuclear membrane integrity). SYTOXRED™ is a high-affinity DNA stain that can only pass through the cytoplasmic and nuclear membranes of cells which have lost the integrity of both membranes; thus, brightly fluorescent cells are dead.

[2] = tested on: phosphorylation of the downstream STAT5 target in K562 cells; assay: Phosphorylation of STAT5 in K562 cells by flow cytometry; format: cell-based; settings: Homo sapiens, 0.5 h, 30 min
Description: Cells were deposited onto dilutions of test compounds deposited into individual wells of […], as indicated above. Following incubation in a tissue culture incubator (5% CO2 at 37° C.) for 30 minutes to 12 hr, the cells were pelleted by centrifugation, the supernatant was removed, the cells were re-suspended by vibration in the remaining supernatant fluid, and 50 μl of fixative (1.2% formaldehyde in PBS) was added. Following 15 min incubation (at 37° C.), cells were pelleted by centrifugation, supernatant removed, and the cells were suspended by vibrating the plate.
Cell were permeabilized by adding 150 μl cold absolute methanol, followed by incubation at 4° C. for 15 minutes. Permeabilized cells were centrifuged, supernatant removed, and cells were washed three times with cold (4° C.) PBS containing 4% FBS. Following the final wash, cells were centrifuged, the supernatant was removed, and cells were re-suspended in an antibody cocktail (total volume 20 μl) appropriate for that experiment.

[3] = tested on: HL-60 cells; assay: Plate 1b: mitochondrial membrane potential (MMP) measured with JC-9 by flow cytometry; format: cell-based, human
Description: as §1, with “step. Plates were returned to the tissue culture incubator (5% CO2 at 37° C.) for an additional 15 min (plate 1a) or 30 min (plate 1b), followed by immediate analysis using the […]-CYAN™.” for “step.”
Measurements identical to those described in Example 2 above were made using a second combination of dyes: • (1) VYBRANVIOLET™ to measure cell cycle in live cells; • (2) JC-9 to measure mitochondrial membrane potential (MMP); and • (3) SYTOXRED™ (as described herein above).
The measurement of mitochondrial membrane potential (MMP) with JC-9 was performed with two independent fluorescence channels (green and red fluorescence signals), as changes in MMP cause aggregation of the dye, with different fluorescence emission by the aggregated versus non-aggregated dye molecules. […] At higher valinomycin concentrations, red fluorescence […]. A unique aspect of this assay is that it correlates changes in MMP (JC-9) and cell death (SYTOXRED™) with the phases of the cell cycle (G1, S, and G2M).
An identical study to the one described before was conducted with exposing HL60 cells exposed to 1.23 μM idarubicin, an analog of daunorubicin which inserts into DNA and prevents it from unwinding during DNA replication and arrests cell division.

[4] = tested on: human peripheral blood monocytes; assay: Kinetics of signal transduction responses to LPS in whole blood monocytes by flow cytometry; format: cell-based; settings: LPS alone
From the text: Herein, specific dyes that monitor cell membrane permeability (marker for cell death), nuclear membrane permeability (marker for cell death), signal transduction pathways implicated in DNA damage (phospho-Histone H2A, phospho-ATM/ATR, phospho-p53), signal transduction pathways implicated in inflammation (e.g., NF-kB), signal transduction via the MAP kinase pathways (ERK, SAP/JNK, p38), signal transduction via the PI3 Kinase pathway (Akt, GSK3B, RS6K, S6), early apoptotic pathways (e.g., annexin V), mid apoptotic pathways (e.g., cleaved caspase), late apoptotic pathways (e.g., PARP/DNA fragmentation), etc. may be employed.

[5] = 33 μM, cells with normal morphology
[6] = 33 μM, population with altered morphology

## N#CC(C#N)=NNc1ccc(OC(F)(F)F)cc1 [FCCP, carbonyl cyanide-4-(trifluoromethoxy)phenylhydrazone]
[1]; [5]
  CALCEIN AM: normal
  GSH: normal
  ROS: increased ROS
  nuclear and cytoplasmic membranes (SYTOX Red uptake): intact nuclear and cytoplasmic membranes
[1]; [6]
  CALCEIN: increased CALCEIN
  GSH: reduced GSH
  ROS: increased ROS
  SYTOXRED: higher SYTOXRED™

## Cc1ccc(NC(=O)c2ccc(CN3CCN(C)CC3)cc2)cc1Nc1nccc(-c2cccnc2)n1 [GLEEVEC, imatinib]
[2]
  inhibition at 2 µM: > 95%

## CNCCC(Oc1ccc(C(F)(F)F)cc1)c1ccccc1 (centres unmarked) [fluoxetine]
[1]; 100 μM
  CALCEIN AM: reduced CALCEIN AM
  GSH (MBBR): reduced GSH
  ROS (MITOSOX RED): increased ROS
  cell death in relation to cell cycle (SYTOXRED histogram): cells are dying throughout the cell cycle

## CC(=O)[C@]1(O)Cc2c(O)c3c(c(O)c2[C@@H](O[C@H]2C[C@H](N)[C@H](O)[C@H](C)O2)C1)C(=O)c1ccccc1C3=O [idarubicin]
[3]; 1.23 μM
  JC-9 red fluorescence versus untreated control cells: significantly higher
[3]; FIG. 6B
  JC-9 green fluorescence: does not increase

## CO/C(=C/C(N)=O)[C@H](C)[C@H](/C=C/c1csc(-c2csc([C@@H](C)/C=C/C=C/C(C)C)n2)n1)OC [myxothiazol]
[1]; 100 μM
  CALCEIN AM: decrease
  GSH (MBBR): decrease
  ROS (MITOSOX RED): increase
  SYTOXRED (cytoplasmic and nuclear membrane permeability, viability): increase
  cell morphology (light scatter): significant change in cell morphology
[1]; 100 μM, listed as myxothiozol
  SYTOXRED (cytoplasmic and nuclear membrane permeability, viability): perturbs cytoplasmic and nuclear membrane permeability (viability)

## CC(C)[C@@H]1NC(=O)[C@H](C)OC(=O)[C@@H](C(C)C)NC(=O)[C@@H](C(C)C)OC(=O)[C@H](C(C)C)NC(=O)[C@H](C)OC(=O)[C@@H](C(C)C)NC(=O)[C@@H](C(C)C)OC(=O)[C@H](C(C)C)NC(=O)[C@H](C)OC(=O)[C@@H](C(C)C)NC(=O)[C@@H](C(C)C)OC1=O [valinomycin]
[3]; FIG. 6A legend
  concentration at peak of JC-9 red and green fluorescence: ~0.045 µM
[3]; FIG. 6A, Example 4A
  concentration at peak JC-9 green fluorescence: ~0.05 µM
[3]; with increasing concentration, FIG. 6A
  JC-9 red and green fluorescence: initially increase; also recorded: significantly higher

## lipopolysaccharide [LPS]
[4]
  ERK, Akt and S6 (phosphorylation): activated; also recorded: activates (phosphorylates)
  Iκ kinase (proteasomal degradation of IκBα): activates
